Experimental data as given in US11007183B2, “Cancer treatments using combinations of PI3K/Akt pathway and ERK inhibitors” (BIOMED VALLEY DISCOVERIES, INC., priority 2013, dated 2021).
Values joined by “and” are separate entries in the source; they are usually repeats but may differ in a detail not shown here. Equal entries are not always repeated.

Experiments:
[1] = test system: HCT116 Parental; experiment: Single agent proliferation assay (CellTiter-Glo, 72 h); type: cell-based, human
Experimental: (§1) Cells were seeded in 96-well plates at the densities and media conditions indicated in Table 11 in McCoy's 5A containing either 10% FBS or 1% charcoal-stripped FBS (CS-FBS), and allowed to adhere overnight prior to addition of compound or vehicle control. Compounds were prepared from DMSO stocks to give the desired final concentrations. The final DMSO concentration was constant at 0.1%. Test compounds were incubated with the cells for 72 h at 37° C., 5% CO2 in a humidified atmosphere. CellTiter-Glo® reagent (Promega, Madison, Wis.) was added according to manufacturer's instructions and luminescence detected using the BMG FLUOstar plate reader (BMG Labtech, Ortenberg, Germany). The average media only background value was deducted and the data analysed using a 4-parameter logistic equation in GraphPad Prism (GraphPad Software, La Jolla, Calif.).

[2] = test system: HCT116 PIK3CA (+/−); experiment: as above; type: cell-based, human
Experimental: as §1, with “Compounds were prepared from DMSO stocks to give the desired final concentrations.” left out

[3] = Toxicity (body weight, deaths, clinical signs) in the HCT116 xenograft study; type: in vivo, mice; details: Group 10: Paclitaxel 30 mg/kg iv qod x 5
Experimental: Animals were weighed daily on Days 1-5, then twice per week until completion of the study. The mice were observed frequently for overt signs of any adverse, TR side effects, and clinical signs were recorded when observed. Individual BW loss was monitored as per protocol, and any animal whose weight exceeded the limits for acceptable BW loss was euthanized. Group mean BW loss also was monitored as per protocol. Dosing was to be suspended in any group that exceeded the limits for acceptable mean BW loss. If mean BW recovered, then dosing was to be resumed in that group, but at a lower dosage or less frequent dosing schedule. Acceptable toxicity for the maximum tolerated dose (MTD) was defined as a group mean BW loss of less than 20% during the study and not more than 10% TR deaths. A death was classified as TR if attributable to treatment side effects as evidenced by clinical signs and/or necropsy, or may also be classified as TR if due to unknown causes during the dosing period or within 14 days of the last dose. A death was classified as NTR if there was no evidence that death was related to treatment side effects. NTR deaths may be further characterized based on cause of death. A death was classified as NTRa if it resulted from an accident or human error. […] A death was classified as NTRu if the cause of death was unknown and there was no available evidence of death related to treatment side effects, metastasis, accident or human error, although death due to treatment side effects cannot be excluded.

[4] = test system: HCT116 human colorectal carcinoma xenograft; experiment: HCT116 xenograft tumor growth delay (TGD) study; type: in vivo, mice
Experimental: Female athymic nude mice (Crl:NU(Ncr)-Foxn1^nu, Charles River) were eight weeks old with a body weight (BW) range of 14.6 to 25.7 grams on Day 1 of the study. The animals were fed ad libitum water (reverse osmosis, 1 ppm Cl), and NIH 31 Modified and Irradiated Lab Diet® consisting of 18.0% crude protein, 5.0% crude fat, and 5.0% crude fiber. The mice were housed on irradiated Enrich-O'Cobs™ Laboratory Animal Bedding in static microisolators on a 12-hour light cycle at 20-22° C. (68-72° F.) and 40-60% humidity.
HCT116 human colon carcinoma cells were cultured in RPMI-1640 medium supplemented with 10% fetal bovine serum, 2 mM glutamine, 100 units/mL penicillin G sodium, 100 μg/mL streptomycin sulfate, and 25 μg/mL gentamicin. The tumor cells were grown in tissue culture flasks in a humidified incubator at 37° C., in an atmosphere of 5% CO2 and 95% air.
The HCT116 cells used for implantation were harvested during exponential growth and resuspended in 50% Matrigel (BD Biosciences): 50% phosphate buffered saline at a concentration of 2.5×10^7 cells/mL. On the day of tumor implant, each test mouse was injected subcutaneously in the right flank with 5×10^6 cells (0.2 mL cell suspension), and tumor growth was monitored as the average size approached the target range of 100 to 150 mm^3. Tumors were measured in two dimensions using calipers, and volume was calculated using the formula: Tumor Volume (mm^3)=(w^2×l)/2 where w=width and l=length, in mm, of the tumor. Tumor weight may be estimated with the assumption that 1 mg is equivalent to 1 mm^3 of tumor volume.
Ten days after tumor implantation, designated as Day 1 of the study, the animals were sorted into nine groups (Groups 1-9) each consisting of fifteen mice and one group (Group 10) consisting of ten mice.
BVD-523 doses were prepared by suspending the required amount of BVD-523 powder in 1% carboxymethyl cellulose (CMC) in deionized water (“Vehicle”). A 10 mg/mL BVD-523 stock was prepared, and was used to dose the 100 mg/kg BVD-523 group. Aliquots of the stock were diluted with the vehicle to a concentration of 5.0 mg/mL, which provided a 50 mg/kg BVD-523 dosage in a dosing volume of 10 mL/kg. The BVD-523 doses were stored at 4° C. for up to one week. The 1% CMC vehicle was used to dose the control group.
Paclitaxel (Lot CP2N10007) was purchased as a dry powder from Phyton Biotech, LLC (Fort Worth, Tex.). A paclitaxel stock solution (30 mg/mL) in 50% ethanol: 50% Cremophor EL was prepared and stored at room temperature protected from light during the dosing period. On each day of dosing, an aliquot of the paclitaxel stock was diluted with 5% dextrose in water (D5W) to yield a 3.0 mg/mL paclitaxel dosing solution in a vehicle consisting of 5% ethanol: 5% Cremophor EL: 90% D5W.
On Day 1 of the study, mice were sorted into nine groups (Group 1-9) each consisting of fifteen mice and one group (Group 10) consisting of ten mice, and dosing was initiated according to the treatment plan summarized in Table 4 below. All doses were given by oral gavage (p.o.) except paclitaxel, which was given i.v. For each agent, the dosing volume of 10 mL/kg (0.2 mL per 20 grams of BW) was scaled to the BW of the individual animal. […] For bid dosing, dosing was initiated in the afternoon of Day 1, so that one dose was given on the first day (“first day 1 dose”).
Group 1 received 1% CMC vehicle p.o. bid to end, and served as the control group for calculation of % TGD. Group 10 received paclitaxel i.v. at 30 mg/kg once every other day (qod) for five doses (qod×5), and served as the positive control for the model.
Groups 4 and 5 received 50 and 100 mg/kg BVD-523, respectively, p.o. bid to end.

[5] = test system: parental HCT116 cells; experiment: Combination proliferation assay (Loewe/Bliss); type: cell-based; details: Homo sapiens, HCT-116, 2.5% serum, mean of n=4 separate combinations, read-out: IC50 (single agent, derived from combination assay plates)
Experimental: Cells were seeded into triplicate 96-well plates at the densities indicated in Table 11 in McCoy's 5A media containing 2.5% FBS and allowed to adhere overnight prior to addition of test compound or vehicle control. Combinations were tested using either a 10×8 or for the follow-up HCT116 study a 3×1 dose matrix.
Test compounds were incubated with the cells for 72 h at 37° C., 5% CO2 in a humidified atmosphere. CellTiter-Glo® reagent (Promega, Madison, Wis.) was added according to manufacturer's instructions and luminescence detected using the BMG FLUOstar plate reader (BMG Labtech, Ortenberg, Germany). The average media only background value was deducted and the data analysed.
For the 10×8 combination assays the combination interactions across the dose matrix were determined by the Loewe Additivity and Bliss independence models using Chalice™ Combination Analysis Software (Horizon Discovery Group, Cambridge, Mass.) as outlined in the user manual (available at chalice.horizondiscovery.com/chalice-portal/documentation/analyzer/home.jsp). Synergy is determined by comparing the experimentally observed level of inhibition at each combination point with the value expected for additivity, which is derived from the single-agent responses along the edges of the matrix. […]

[6] = test system: HCT116 PIK3CA (+/−) cells; experiment: Combination proliferation assay (Loewe/Bliss); type: cell-based, human; details: Homo sapiens, HCT-116, read-out: IC50 (single agent, derived from combination assay plates)
Experimental: Test compounds were incubated with the cells for 72 h at 37° C., 5% CO2 in a humidified atmosphere. CellTiter-Glo® reagent (Promega, Madison, Wis.) was added according to manufacturer's instructions and luminescence detected using the BMG FLUOstar plate reader (BMG Labtech, Ortenberg, Germany). The average media only background value was deducted and the data analysed. For the 10×8 combination assays the combination interactions across the dose matrix were determined by the Loewe Additivity and Bliss independence models using ChaliceTM Combination Analysis Software (Horizon Discovery Group, Cambridge, Mass.) as outlined in the user manual (available at chalice.horizondiscovery.com/chalice-portal/documentation/analyzer/home.jsp). Synergy is determined by comparing the experimentally observed level of inhibition at each combination point with the value expected for additivity, which is derived from the single-agent responses along the edges of the matrix. Potential synergistic interactions were identified by displaying the calculated excess inhibition over that predicted as being additive across the dose matrix as a heat map, and by reporting a quantitative 'Synergy Score' based on the Loewe model. The single agent data derived from the combination assay plates were presented as dose-response curves generated in GraphPad Prism (GraphPad Software, La Jolla, Calif.) (plotted using percentage viability relative to DMSO only treated controls). […] (Cbliss is the fractional inhibition that would be expected if the combination of the two drugs were exactly additive). Cbliss values were then subtracted from the experimentally observed fractional inhibition values to give an 'excess over Bliss' value which were plotted as heat maps±SD.

[7] = Homo sapiens, HCT-116, 72 h, 1% CS-FBS
[8] = Homo sapiens, HCT-116, 72 h, 10% FBS
[9] = Group 1 (vehicle) vs Group 10 (Paclitaxel 30 mg/kg iv qod x 5)
[10] = Group 10: Paclitaxel 30 mg/kg iv qod x 5

| SMILES | IC50 [1, 7] | IC50 [1, 8] | IC50 [2, 7] | IC50 [2, 8] | also measured |
| --- | --- | --- | --- | --- | --- |
| Nc1cc(C(F)(F)F)c(-c2cc(N3CCOCC3)nc(N3CCOCC3)n2)cn1 [BKM120] | 530 nM | 620 nM | 1030 nM | 520 nM | – |
| CS(=O)(=O)N1CCN(Cc2cc3nc(-c4cccc5[nH]ncc45)nc(N4CCOCC4)c3s2)CC1 [GDC-0941, pictilisib] | 60 nM | 1530 nM | – | – | – |
| CC(C)n1nc(-c2ccc3oc(N)nc3c2)c2c(N)ncnc21 [INK128] | 30 nM | 50 nM | 20 nM | 70 nM | – |
| COc1ccc(-c2cc3c(C)nc(N)nc3n([C@H]3CC[C@H](OCCO)CC3)c2=O)cn1 [PF-04691502] | – | – | – | – | IC50 ([1]; 1% CS-FBS): 70 nM; IC50 ([1]; 10% FBS): 290 nM; IC50 ([2]; 1% CS-FBS): 1540 nM; IC50 ([2]; 10% FBS): 420 nM |
| CC(=O)O[C@H]1C(=O)[C@@]2(C)[C@H]([C@H](OC(=O)c3ccccc3)[C@]3(O)C[C@H](OC(=O)[C@H](O)[C@@H](NC(=O)c4ccccc4)c4ccccc4)C(C)=C1C3(C)C)[C@]1(OC(C)=O)CO[C@@H]1C[C@@H]2O [Paclitaxel, reference compound] | 3 nM | 2 nM | 3 nM | 2 nM | Deaths NTR [3]: 0; Deaths TR [3]: 0; Are survival curves diff.? [4, 9]: Yes; Logrank test Chi square [4, 9]: 24.03; % TGD [4, 10]: 38%; MTV (n): number of animals on D 45 (45-day survivors) [4, 10]: (10); MTV D 45 (median tumor volume) [4, 10]: 688 mm^3; Median TTE [4, 10]: 45.0 days; Regressions CR [4, 10]: 0; Regressions PR [4, 10]: 8/10 and 8; Regressions TFS [4, 10]: 0; T − C [4, 10]: 12.3 days |
| O=C(Nc1ccc2[nH]nc(-c3ccncc3)c2c1)[C@@H]1CCN(CC(=O)N2CCN(c3ccc(-c4ncccn4)cc3)CC2)C1 [SCH772984] | 30 nM | 140 nM | 10 nM | 80 nM | IC50 [5]: 210 nM; IC50 [6]: 30 nM |
